From patent US20110275695A1, “CRYSTALLINE FORMS OF ZOTEPINE HYDROCHLORIDE” (BIONEVIA PHARMACEUTICALS, INC., priority 2008, published 2011)
“Also recorded” adds a separate entry of the source. Counter-ions that a name gives are not always drawn. Like-named read-outs stand apart in the source and are kept apart here.

What was measured:
[1] = Intrinsic dissolution in water at 25° C. (Woods apparatus pellets, UV at 302 nm); format: physicochemical; settings: for intrinsic dissolution rate: 50 RPM, 900 mL, mean of three pellets, equivalent hydrochloride salt concentration, not normalized for surface area
Procedure: Intrinsic Dissolution: Pellets of approximately 200 mg were pressed at 3000 lbs. for 1 minute in a standard Woods apparatus, with a surface area of 0.5 cm^2. Three pellets were tested for each material, testing one material at a time. The samples were rotated in a VanKel dissolution apparatus, with automated sampling, at 50 RPM in 900 mL of water at 25° C. Aliquots were taken every two minutes and not filtered prior to analysis. Concentrations were determined through UV absorbance at approximately 302 nm, to avoid potential interference from benzoic acid. Equivalent hydrochloride salt concentrations were calculated from the Beer's Law plot generated from zotepine hydrochloride salt aqueous standards.
To determine the rate of dissolution of each material, a plot was generated of the absorbance over time for each vessel. From this plot, a linear region was chosen from the initial dissolution period of each material: starting at the first time point when the measured absorbance exceeded the minimum measured absorbance value in the Beer's Law relationship generated from zotepine hydrochloride salt aqueous standards. The end of the linear region was chosen as either 30 minutes after the first time point, or at the maximum recorded absorbance value that falls within the Beer's Law Relationship. Equivalent hydrochloride salt concentrations were plotted versus time for the regions. A straight-line was fit to the data for each vessel. The slope of these lines provides the dissolution rate for each of the materials, expressed as [μg/mL]/min. The mean of the three rates is the reported rate for each material, expressed as equivalent hydrochloride salt concentration, for direct comparison of the materials. The rates were not normalized for the surface area of the pellet.

[2] = Approximate aqueous solubility by portion-wise addition of solid to water, visual inspection
Procedure: An attempt was made to measure the aqueous solubility of zotepine hydrochloride. To a 1-dram vial was charged 99 mg of zotepine hydrochloride, and 1 mL of HPLC-grade water (obtained from Mallinckrodt) was added.
A 0.5-mL aliquot of the resulting zotepine hydrochloride aqueous solution was then charged to a second 2-dram vial, and 50 mg of zotepine hydrochloride (50 mg) was added. […] At this point, the procedure was discontinued.

[3] = Equilibrium solubility in water, ambient-temperature slurry, UV measurement; format: physicochemical; settings: for equilibrium solubility in water / solid recovered from solubility experiment (XRPD analysis) / aqueous solubility (in words): ambient temperature; for equilibrium solubility in water: UV analysis of supernatant; for solid recovered from solubility experiment (XRPD analysis) / aqueous solubility (in words): water
Procedure: Equilibrium Solubility—UV Measurement: Equilibrium solubility was determined in water using ambient-temperature slurry experiments. Samples were prepared with excess solids and agitated on a wheel for at least 3 days. Remaining solids were separated from the mixture by centrifugation. The clear supernatant was pipeted to a separate container and the concentration determined through ultraviolet (UV) spectrophotometry, diluting the sample with additional water if necessary. […] Equivalent zotepine hydrochloride salt concentrations were calculated from the Beer's Law plot generated front zotepine hydrochloride salt aqueous standards and adjusted to account for the stoichiometry of the solids utilized. Retained solids were analyzed by X-ray powder diffraction, if sufficient solids were present. Concentrations of aqueous solutions of BNV-218 were determined through ultraviolet absorbance. Ultraviolet spectrophotometry: Solutions were analyzed using a Cary 50 dual-beam spectrophotometer. They were analyzed at ambient temperature in a 1.000-cm quartz cuvette. Scans at 600 nm/min in the range of 800-200 nm were performed to determine an optimal wavelength for concentration measurement. The cuvette was washed with methanol, followed by water, and the detector was then zeroed prior to analysis of each sample. Wavelength calibration was performed using holmium oxide. The photometric accuracy was verified by measuring the intensity of the light at the detector when filters of known optical density were placed in the path of the beam.

[4] = cited from earlier work
[5] = pharmaceutical formulations containing the zotepine free base; cited from earlier work
[6] = listed as crystalline zotepine hydrochloride, hydrochloride

CN(C)CCOC1=Cc2ccccc2Sc2ccc(Cl)cc21.Cl.O=C(O)c1ccccc1 [1:1 zotepine hydrochloride benzoic acid cocrystal]
dissolution rate in water (in words) [1]: intermediate between those of zotepine free base and zotepine hydrochloride | solid recovered after dissolution experiment (XRPD analysis) [1]: the 1:1 zotepine hydrochloride benzoic acid cocrystal | intrinsic dissolution rate [1]: 0.3 [μg/mL]/min | surface activity (suds on addition of solid to water, visual inspection) ([2]; water): exhibited surface activity | equilibrium solubility in water [3]: ~44 mg/mL | equilibrium solubility in water ([3]; listed as 1:1 benzoic acid cocrystal): approximately 44 mg/mL | solid recovered from solubility experiment (XRPD analysis) [3]: 1:1 benzoic acid cocrystal

CN(C)CCOC1=Cc2ccccc2Sc2ccc(Cl)cc21.CN(C)CCOC1=Cc2ccccc2Sc2ccc(Cl)cc21.Cl.Cl.O=C(O)c1ccccc1 [2:1 zotepine hydrochloride benzoic acid cocrystal]
dissolution rate in water (in words) [1]: intermediate between those of the 1:1 zotepine hydrochloride benzoic acid cocrystal and zotepine hydrochloride | solid recovered after dissolution experiment (XRPD analysis) [1]: converts to the 2:1 zotepine hydrochloride benzoic acid cocrystal | intrinsic dissolution rate [1]: 2.3 [μg/mL]/min | approximate solubility / calculated aqueous concentration from amount of solid added ([2]; water, portion-wise addition of solid, ambient temperature): ≥ 56 mg/mL

CN(C)CCOC1=Cc2ccccc2Sc2ccc(Cl)cc21 [zotepine free base, 2-[(8-chlorodibenzo[b,f]thiepin-10-yl)oxy]-N,N-dimethylethylamine, reference compound]
dissolution rate in water (in words) [1]: too low to be calculated; also recorded: negligible; also recorded: very close to zero | maximum UV absorbance in intrinsic dissolution experiment ([1]; 302 nm, experiment ended at 2,880 minutes): 0.02 | solubility in water as reported [4]: relatively insoluble in water | bioavailability [5]: 7-13% | approximate solubility / calculated aqueous concentration from amount of solid added [2]: less than 4 mg/mL | largest recorded UV absorbance at end of equilibrium solubility experiment [3]: 0.02 | aqueous solubility (in words) [3]: negligible | solid recovered from solubility experiment (XRPD analysis) [3]: zotepine free base

CN(C)CCOC1=Cc2ccccc2Sc2ccc(Cl)cc21 [zotepine hydrochloride]
intrinsic dissolution rate ([1]; listed as zotepine hydrochloride salt, hydrochloride): 3.9 [μg/mL]/min | dissolution rate in water (in words) [1, 6]: significantly higher | surface activity (suds on addition of solid to water, visual inspection) [2]: high surface activity | aqueous solubility (in words) [3, 6]: significantly higher
